These results are taken from US20100311729A1, “Substituted imidazopyridazines and pyrrolopyrimidines as lipid kinase inhibitors” (priority 2007, published 2010).

SMILES strings stand for the structures.

The target in data set [1] is T1, PI3K alfa (Homo sapiens, UniProt P42336).
T1 construct: for the p110-a subunit (with a deletion of the first 20 amino acids); His tag (C); made in house; host or cells: baculovirus; Tn5 (Trichoplusia ni) or TiniPro insect cells
Description: PI3 kinase assay (Kinase-Glo luminescence), PI3K alfa. It is filed as biochemical. The conditions noted are these: Enzymatic Data; read-out: PI3K alfa IC50 [umol]. Put shortly: (§1)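 Recombinant PI3K constructs (alfa 10 nM, delta 10 nM, gamma 150 nM) with 1 μM ATP and 10 μg/mL phosphatidylinositol in Tris pH 7.5, MgCl2, NaCl, CHAPS, DTT; 60 min (alfa, delta) or 120 min (gamma) at room temperature. ATP depletion read by Kinase-Glo luminescence; IC50 from 4-parameter logistic fit over 8 concentrations.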
(Kinase-Glo reads ATP consumption through a luciferase reaction.)

Data set [2] has as its target T2, PI3K delta (Homo sapiens, UniProt O00329).
T2 construct: for the full-length p110-d subunit are generated and fused by overlapping PCR; His tag (C); made in house; host or cells: baculovirus; Tn5 (Trichoplusia ni) or TiniPro insect cells
Description: PI3 kinase assay (Kinase-Glo luminescence), PI3K delta. The data set is classed as biochemical. The settings on record: Enzymatic Data; read-out: PI3K delta IC50 [umol]. In short, it runs like this: as §1

Data set [3] addresses T3, PI3K gamma (Homo sapiens, UniProt P48736).
T3 construct: PI3Kγ BV-950 p110g(D144aa)-C-Term His Tag; His tag (C); made in house; host or cells: construct from the Roger Williams lab (MRC LMB) in pVL1393; baculovirus; Tn5 (Trichoplusia ni) or TiniPro insect cells
Description: PI3 kinase assay (Kinase-Glo luminescence), PI3K gamma. The data set is classed as biochemical. The conditions noted are these: Enzymatic Data; read-out: PI3K gamma IC50 [umol]. Put shortly: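 Kinase-Glo luminescence assay with 1 μM ATP and 10 μg/mL phosphatidylinositol (final), reaction started by ATP addition. IC50 from 4-parameter logistic fit of percent inhibition at 8 compound concentrations (usually 10 down to 0.003 […]).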

In data set [4] the target is T4, PI3K beta (Homo sapiens, UniProt P42338).
T4 construct: for the full-length p110-b subunit are generated and fused by overlapping PCR; His tag (C); made in house; host or cells: baculovirus; Tn5 (Trichoplusia ni) or TiniPro insect cells
T4 sequence (P42338 with tags, fused parts or gaps limits assumed): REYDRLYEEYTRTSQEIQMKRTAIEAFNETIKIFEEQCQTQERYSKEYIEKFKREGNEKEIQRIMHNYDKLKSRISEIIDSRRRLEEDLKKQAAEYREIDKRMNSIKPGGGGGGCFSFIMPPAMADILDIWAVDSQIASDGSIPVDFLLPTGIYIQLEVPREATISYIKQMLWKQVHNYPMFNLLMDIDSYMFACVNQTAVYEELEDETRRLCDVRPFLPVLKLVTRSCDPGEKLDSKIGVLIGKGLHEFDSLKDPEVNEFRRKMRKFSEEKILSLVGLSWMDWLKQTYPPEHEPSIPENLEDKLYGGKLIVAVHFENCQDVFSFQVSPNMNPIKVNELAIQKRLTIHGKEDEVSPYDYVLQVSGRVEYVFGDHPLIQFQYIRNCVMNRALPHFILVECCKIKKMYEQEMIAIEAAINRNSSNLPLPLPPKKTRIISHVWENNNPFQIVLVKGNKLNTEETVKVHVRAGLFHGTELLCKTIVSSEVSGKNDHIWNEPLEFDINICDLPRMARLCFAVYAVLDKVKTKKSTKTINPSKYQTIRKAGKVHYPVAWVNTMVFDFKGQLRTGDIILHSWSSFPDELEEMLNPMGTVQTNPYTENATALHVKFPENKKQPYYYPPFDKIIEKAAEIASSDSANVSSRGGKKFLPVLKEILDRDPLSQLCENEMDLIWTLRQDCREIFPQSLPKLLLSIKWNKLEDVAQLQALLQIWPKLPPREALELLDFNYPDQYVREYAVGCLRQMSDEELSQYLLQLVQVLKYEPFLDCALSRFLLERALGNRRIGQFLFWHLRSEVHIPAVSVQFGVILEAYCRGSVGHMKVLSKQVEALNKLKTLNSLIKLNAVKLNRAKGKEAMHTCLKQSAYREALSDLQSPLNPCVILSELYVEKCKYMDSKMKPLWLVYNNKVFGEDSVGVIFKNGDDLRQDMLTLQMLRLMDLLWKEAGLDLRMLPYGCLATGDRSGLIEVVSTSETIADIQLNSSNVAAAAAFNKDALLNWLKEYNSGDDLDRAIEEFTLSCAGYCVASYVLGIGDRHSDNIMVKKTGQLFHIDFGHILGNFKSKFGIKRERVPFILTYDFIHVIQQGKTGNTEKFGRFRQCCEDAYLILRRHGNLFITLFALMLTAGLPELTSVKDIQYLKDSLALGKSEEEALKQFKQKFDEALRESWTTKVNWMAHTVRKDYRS
Description: PI3 kinase assay (Kinase-Glo luminescence), PI3K beta. It is filed as biochemical. The conditions noted are these: Enzymatic Data; read-out: PI3K beta IC50 [umol]. Put shortly: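 PI3Kβ (25 nM, BV-949) with 10 μg/mL phosphatidylinositol in Tris pH 7.5/MgCl2/NaCl/CHAPS/DTT buffer; reaction started with 1 μM ATP, 60 min at room temperature. ATP depletion read by Kinase-Glo luminescence; 8-point dilutions, IC50 by four-parameter logistic fit.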

T1 sequence (P42336 with tags, fused parts or gaps limits assumed): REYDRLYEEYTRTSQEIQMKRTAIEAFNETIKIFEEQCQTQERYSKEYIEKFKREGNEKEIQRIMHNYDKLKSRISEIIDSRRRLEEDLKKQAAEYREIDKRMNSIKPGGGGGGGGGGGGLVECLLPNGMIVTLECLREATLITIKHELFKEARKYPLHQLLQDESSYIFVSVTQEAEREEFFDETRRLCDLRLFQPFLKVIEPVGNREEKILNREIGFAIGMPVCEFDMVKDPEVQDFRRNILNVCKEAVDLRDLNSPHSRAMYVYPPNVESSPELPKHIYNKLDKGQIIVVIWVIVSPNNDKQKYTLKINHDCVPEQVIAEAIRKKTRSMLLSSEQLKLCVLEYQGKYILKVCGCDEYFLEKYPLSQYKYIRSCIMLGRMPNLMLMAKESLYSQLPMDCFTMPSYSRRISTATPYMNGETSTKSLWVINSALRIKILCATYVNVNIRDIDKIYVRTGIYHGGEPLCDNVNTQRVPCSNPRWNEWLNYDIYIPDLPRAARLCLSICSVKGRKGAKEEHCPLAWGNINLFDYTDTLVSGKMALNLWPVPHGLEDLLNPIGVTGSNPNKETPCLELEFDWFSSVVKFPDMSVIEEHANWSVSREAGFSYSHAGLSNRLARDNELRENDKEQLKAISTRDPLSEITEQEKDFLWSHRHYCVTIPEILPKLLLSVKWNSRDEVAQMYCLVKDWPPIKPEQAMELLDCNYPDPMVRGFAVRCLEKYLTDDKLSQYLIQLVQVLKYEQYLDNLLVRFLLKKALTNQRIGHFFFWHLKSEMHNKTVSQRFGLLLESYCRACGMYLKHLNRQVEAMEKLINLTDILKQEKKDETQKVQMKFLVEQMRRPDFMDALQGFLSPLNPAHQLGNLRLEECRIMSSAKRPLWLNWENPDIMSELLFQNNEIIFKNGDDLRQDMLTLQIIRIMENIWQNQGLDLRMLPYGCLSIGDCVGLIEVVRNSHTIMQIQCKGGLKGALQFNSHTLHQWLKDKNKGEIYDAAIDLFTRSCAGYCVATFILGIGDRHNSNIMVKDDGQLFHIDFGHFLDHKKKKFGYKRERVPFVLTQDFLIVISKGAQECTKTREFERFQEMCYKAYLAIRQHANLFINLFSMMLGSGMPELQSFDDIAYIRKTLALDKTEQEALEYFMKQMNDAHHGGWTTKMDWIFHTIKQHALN
T3 sequence (P48736 144-1102 limits assumed): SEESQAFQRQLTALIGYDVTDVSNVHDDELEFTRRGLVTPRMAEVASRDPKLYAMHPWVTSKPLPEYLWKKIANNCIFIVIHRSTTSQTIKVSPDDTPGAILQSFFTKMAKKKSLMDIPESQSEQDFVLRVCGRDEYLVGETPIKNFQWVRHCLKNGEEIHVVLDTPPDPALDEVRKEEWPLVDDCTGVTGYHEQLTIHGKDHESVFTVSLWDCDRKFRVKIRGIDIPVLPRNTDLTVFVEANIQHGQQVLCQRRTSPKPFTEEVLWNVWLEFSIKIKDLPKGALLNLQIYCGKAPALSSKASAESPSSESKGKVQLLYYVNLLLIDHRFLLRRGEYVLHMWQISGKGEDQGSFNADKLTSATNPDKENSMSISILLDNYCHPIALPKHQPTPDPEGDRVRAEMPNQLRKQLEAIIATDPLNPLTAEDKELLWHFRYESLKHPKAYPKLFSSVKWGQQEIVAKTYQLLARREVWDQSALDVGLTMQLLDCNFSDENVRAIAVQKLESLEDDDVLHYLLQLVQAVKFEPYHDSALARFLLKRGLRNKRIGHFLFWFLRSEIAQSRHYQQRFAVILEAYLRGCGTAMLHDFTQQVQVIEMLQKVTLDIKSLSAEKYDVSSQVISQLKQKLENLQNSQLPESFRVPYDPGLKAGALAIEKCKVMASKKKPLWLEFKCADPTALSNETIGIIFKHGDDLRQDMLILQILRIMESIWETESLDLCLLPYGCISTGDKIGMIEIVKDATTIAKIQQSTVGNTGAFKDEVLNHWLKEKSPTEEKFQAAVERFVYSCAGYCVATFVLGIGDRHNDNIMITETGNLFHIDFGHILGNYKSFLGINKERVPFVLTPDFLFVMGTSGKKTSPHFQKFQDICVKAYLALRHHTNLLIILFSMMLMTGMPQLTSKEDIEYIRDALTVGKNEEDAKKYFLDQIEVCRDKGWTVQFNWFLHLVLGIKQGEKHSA
T2 sequence (O00329 with tags, fused parts or gaps limits assumed): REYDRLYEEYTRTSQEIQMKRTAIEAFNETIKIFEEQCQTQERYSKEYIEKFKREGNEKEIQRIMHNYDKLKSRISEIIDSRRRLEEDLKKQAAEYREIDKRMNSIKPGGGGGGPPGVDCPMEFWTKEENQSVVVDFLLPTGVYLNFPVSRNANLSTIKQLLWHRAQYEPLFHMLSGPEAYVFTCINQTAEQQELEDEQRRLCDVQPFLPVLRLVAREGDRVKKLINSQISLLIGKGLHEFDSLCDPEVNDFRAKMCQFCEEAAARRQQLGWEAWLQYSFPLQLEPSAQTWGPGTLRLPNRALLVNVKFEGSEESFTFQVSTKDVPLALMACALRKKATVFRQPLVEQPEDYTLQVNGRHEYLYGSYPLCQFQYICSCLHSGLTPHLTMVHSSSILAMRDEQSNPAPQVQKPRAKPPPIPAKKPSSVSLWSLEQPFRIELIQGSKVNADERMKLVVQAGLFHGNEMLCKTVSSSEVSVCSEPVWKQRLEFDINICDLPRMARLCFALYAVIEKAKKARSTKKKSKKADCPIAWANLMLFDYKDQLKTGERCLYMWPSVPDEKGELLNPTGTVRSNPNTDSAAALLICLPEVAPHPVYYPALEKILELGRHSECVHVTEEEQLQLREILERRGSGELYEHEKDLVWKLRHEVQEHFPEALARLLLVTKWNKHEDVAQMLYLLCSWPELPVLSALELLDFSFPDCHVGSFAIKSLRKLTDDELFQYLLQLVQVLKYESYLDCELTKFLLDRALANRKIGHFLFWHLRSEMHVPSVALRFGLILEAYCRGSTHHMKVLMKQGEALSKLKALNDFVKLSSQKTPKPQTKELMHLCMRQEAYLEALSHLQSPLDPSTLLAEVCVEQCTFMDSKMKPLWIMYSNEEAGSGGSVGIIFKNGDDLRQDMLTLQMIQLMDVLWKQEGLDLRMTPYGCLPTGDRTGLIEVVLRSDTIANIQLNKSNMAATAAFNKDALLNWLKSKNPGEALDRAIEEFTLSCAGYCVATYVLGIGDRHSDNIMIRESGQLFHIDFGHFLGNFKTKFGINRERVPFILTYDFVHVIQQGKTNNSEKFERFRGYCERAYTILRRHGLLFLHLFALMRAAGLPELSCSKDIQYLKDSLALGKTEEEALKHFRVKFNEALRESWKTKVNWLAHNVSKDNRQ

Broadly, the melting point is the temperature of the solid-liquid transition. In the case of `COc1ccc(-c2cnn3ccc(-c4ccc(OCCCNC(=O)OC(C)(C)C)c(OC)c4)nc23)cc1OC` [Example 25, (3-{4-[3-(3,4-Dimethoxy-phenyl)-pyrazolo[1,5-a]pyrimidin-5-yl]-2-methoxy-phenoxy}-propyl)-carbamic acid tert-butyl ester], the melting point is 131 to 133 °C.
`Nc1ncc(-c2cnc3ccc(-c4ccc(OCC5(N)COC5)cc4)nn23)cc1C(F)(F)F` [Example 147, 5-{6-[4-(3-Amino-oxetan-3-ylmethoxy)-phenyl]-imidazo[1,2-b]pyridazin-3-yl}-3-trifluoromethyl-pyridin-2-yl amine] gave a melting point of 198 to 200 °C. The IC50 in data set [1] is 61 nM. For the same compound, in data set [2], the IC50 came to 227 nM. Besides, in data set [3], the IC50 was 1310 nM. In data set [4], the IC50 came to 496 nM.
For `COC(=O)NC1(COc2ccc(-c3ccc4ncc(-c5cnc(N)c(C(F)(F)F)c5)n4n3)cc2)COC1` [Example 148, (3-{4-[3-(6-Amino-5-trifluoromethyl-pyridin-3-yl)-imidazo[1,2-b]pyridazin-6-yl]-phenoxymethyl}-oxetan-3-yl)-carbamic acid methyl ester] the same measures were 220 to 222 °C, 96 nM, 369 nM, 810 nM and 3290 nM.
As for `COc1cc(-c2ccc3ncc(-c4cnc(N)c(C(F)(F)F)c4)n3n2)ccc1OC1CCNCC1` [Example 166, 5-{6-(3-Methoxy-4-(piperidin-4-yloxy)-phenyl]-imidazo [1,2-b]pyridazin-3-yl}-3-trifluoro-methyl-pyridin-2-ylamine], the IC50 in data set [1] was found to be 50 nM; in data set [2] it was 41 nM; in data set [3], 556 nM; in data set [4] it was 204 nM.
In the case of `CC(C)C(=O)NCC1(COc2ccc(-c3ccc4ncc(-c5cnc(N)c(C(F)(F)F)c5)n4n3)cc2)COC1` [Example 167], the melting point fell in the range of 205 to 207 °C. Also, the IC50 in data set [1] stood at 35 nM. The IC50 in data set [2] was 231 nM. Moreover, the IC50 in data set [3] is 2040 nM. In addition, in data set [4], the IC50 worked out at 1480 nM.
On the same counts, the results for `Nc1ncc(-c2ccc3ncc(-c4ccc(CO)cc4)n3n2)cc1C(F)(F)F` [Example 168, {4-[6-(6-Amino-5-trifluoromethyl-pyridin-3-yl)-imidazo[1,2-b]pyridazin-3-yl]-phenyl}-methanol] are 290 to 292 °C, 11 nM, 14 nM, 585 nM and 25 nM.
As to `NCC1(COc2ccc(-c3ccc4ncc(-c5cnc(N)c(C(F)(F)F)c5)n4n3)cc2)COC1` [Example 169, 5-{6-[4-(3-Aminomethyl-oxetan-3-ylmethoxy)-phenyl]-imidazo[1,2-b]pyridazin-3-yl}-3-trifluoromethyl-pyridin-2-ylamine], the IC50 in data set [1] was found to be 45 nM; in data set [2], 53 nM; in data set [3] it was 324 nM; in data set [4], 82 nM.
On the same counts, the results for `Nc1ncc(-c2ccc3ncc(-c4ccc(OCCCN5CCOCC5)cc4)n3n2)cc1C(F)(F)F` [Example 171, 5-{3-[4-(3-Morpholin-4-yl-propoxy)-phenyl]-imidazo [1,2-b]pyridazin-6-yl}-3-trifluoro-methyl-pyridin-2-ylamine] are 49 nM, 61 nM, 480 nM and 185 nM.
The compound `Nc1ncc(-c2cnc3ccc(-c4ccc(OCC5(CNC(=O)C6CC6)COC5)cc4)nn23)cc1C(F)(F)F` [Example 172, Cyclopropanecarboxylic acid (3-{4-[3-(6-amino-5-trifluoromethyl-pyridin-3-yl)-imidazo[1,2-b]pyridazin-6-yl]-phenoxymethyl}-oxetan-3-ylmethyl)-amide] showed a melting point of 223 to 225 °C. The IC50 in data set [1] amounted to 48 nM. Moreover, in data set [2], the IC50 came out at 139 nM. Moreover, the IC50 in data set [3] turned out to be 461 nM. In data set [4], the IC50 stood at 1050 nM.
Regarding `Nc1ncc(-c2ccc3ncc(-c4ccc(OCCCc5ccncc5)cc4)n3n2)cc1C(F)(F)F` [Example 174, 5-{3-[4-(3-Pyridin-4-yl-propoxy)-phenyl]-imidazo [1,2-b]pyridazin-6-yl}-3-trifluoro-methyl-pyridin-2-ylamine], the IC50 in data set [1] came to 106 nM; in data set [2] it was 224 nM; in data set [3], 2070 nM; in data set [4], 2060 nM.
For `CC(C)(C)OC(=O)NCCCOc1ccc(-c2ccc3ncc(-c4cnc(N)c(C(F)(F)F)c4)n3n2)cn1` [Example 175, (3-{5-[3-(G-Amino-5-trifluoro-methyl-pyridin-3-yl)-imidazo [1,2-b]pyridazin-6-yl]-pyridin-2-yloxy}-propyl)-carbamic acid tert-butyl ester] the same measures were 119 nM, 421 nM, more than 9100 nM and 7100 nM.
On the same counts, the results for `NCCCOc1ccc(-c2ccc3ncc(-c4cnc(N)c(C(F)(F)F)c4)n3n2)cn1` [Example 176, 5-{6-[6-(3-Amino-propoxy)-pyridin-3-yl]-imidazo-[1,2b]pyridazin-3-yl}-3-trifluoro-methyl-pyridin-2-ylamine] are 82 nM, 41 nM, 2440 nM and 81 nM.
On the same counts, the results for `Nc1ncc(-c2cnc3ccc(-c4ccc(OCCCNC(=O)C5CC5)nc4)nn23)cc1C(F)(F)F` [Example 177, Cyclo-propane-carboxylic acid (3-{5-[3-(6-amino-5-trifluoro-methyl-pyridin-3-yl)-imidazo [1,2-b]pyridazin-6-yl]-pyridin-2-yloxy}-propyl)-amide] are 11 nM, 92 nM, more than 9100 nM and 331 nM.
Take `c1cc2cc(-c3cnc4ccc(-c5ccc6c(c5)OCO6)nn34)cnc2[nH]1` [Example 178, 6-Benzo [1,3] dioxol-5-yl-3-(1H-pyrrolo [2,3-b]pyridin-5-yl)-imidazo [1,2-b] pyridazine]: the IC50 was 793 nM in data set [1], 495 nM in data set [2], more than 9100 nM in data set [3] and 6190 nM in data set [4].
For `COc1ccccc1-c1ccn2ncc(-c3ccc(C(N)=O)cc3)c2n1` [Example 179, 4-[5-(2-Methoxy-phenyl)-pyrazolo[1,5-a]pyrimidin-3-yl]-benzamide] the same measures were 3900 nM, 448 nM, 2920 nM and more than 9100 nM.
In the case of `Nc1ncc(-c2ccc3ncc(-c4ccc(CN5CCC(C(=O)N6CCCCCC6)CC5)cc4)n3n2)cc1C(F)(F)F` [Example 182, (1-{4-[6-(6-Amino-5-trifluoromethyl-pyridin-3-yl)-imidazo[1,2-b]pyridazin-3-yl]-benzyl}-piperidin-4-yl)-azepan-1-yl-methanone], the melting point lay in the range of 249 to 252 °C.
Same read-out and setting: in the case of `Nc1ncc(-c2ccc3ncc(-c4ccc(CN5CCC(C(=O)N6CCCCC6)CC5)cc4)n3n2)cc1C(F)(F)F` [Example 183, (1-{4-[6-(6-Amino-5-trifluoromethyl-pyridin-3-yl)-imidazo[1,2-b]pyridazin-3-yl]-benzyl}-piperidin-4-yl)-piperidin-1-yl-methanone] it was 263 to 266 °C.
